# Results as given in US9802899B2, “Heterocyclic compounds as pesticides” (BAYER CROPSCIENCE AG, priority 2012, dated 2017).
# Experiment: Determination of the log P values by HPLC (formic acid method)
# Format: physicochemical
# Settings: reversed-phase HPLC column (C 18), reversed-phase column (C 18), acidic range (pH 3.4), 55° C.
# Protocol: 1) Description of Method for Determination of the Log P Values (Formic Acid Method)
# Eluents for determination in the acidic range (pH 3.4):
# Eluent A: acetonitrile+1 ml of formic acid/liter. Eluent B: water+0.9 ml of formic acid/liter.
# The lambda max values were determined in the maxima of the chromatographic signals using the UV spectra from 200 nm to 400 nm.
row,SMILES,chromatographic logP
1,"O=C(Nc1ccn(-c2nccc(-c3ccc(F)cc3)c2F)n1)c1ccccc1C(F)(F)F [Compound I-1-640, N-{1-[3-Fluoro-4-(4-fluorophenyl)pyridin-2-yl]-1H-pyrazol-3-yl}-2-(trifluoromethyl)benzamide]",3.4
2,"Nc1cc(F)c(-n2ccc(NC(=O)c3ccccc3C(=O)O)n2)c(F)c1 [Compound I-1-643, 2-{[1-(4-Amino-2,6-difluorophenyl)-1H-pyrazol-3-yl]carbamoyl}benzoic acid]",1.38
3,"O=C(Nc1cnn(-c2ncc(F)cc2F)n1)c1ccccc1C(F)(F)F [Compound I-2-63, N-[2-(3,5-Difluoropyridin-2-yl)-2H-1,2,3-triazol-4-yl]-2-(trifluoromethyl)benzamide]",2.38

# Same assay, conditions: reversed-phase column (C 18), acidic range (pH 3.4), 55° C.
row,SMILES,log P
1,O=C(Nc1ccn(-c2ncc(F)cc2F)n1)c1ccccc1CC(F)(F)F [Compound I-1-635],2.80
2,O=C(Nc1ccn(-c2ncc(F)cc2F)n1)C1=C(C(F)F)OCCS1 [Compound I-1-636],2.31
3,O=C(Nc1ccn(-c2ncc(F)cc2F)n1)c1c(F)cccc1Br [Compound I-1-637],2.50
4,O=C(Nc1ccn(-c2ncc(F)cc2F)n1)c1c(Cl)cccc1C(F)(F)F [Compound I-1-638],2.70
5,CC1=C(C(=O)Nc2ccn(-c3ncc(F)cc3F)n2)OCCO1 [Compound I-1-639],2.16
6,O=C(Nc1ccn(-c2nccc(-c3ccc(F)cc3)c2F)n1)c1ccccc1C(F)(F)F [Compound I-1-642],3.40
7,Cn1cncc1C(=O)Nc1ccn(-c2c(F)cccc2F)n1 [Compound I-1-644],0.99
8,Cn1cccc1C(=O)Nc1ccn(-c2c(F)cccc2F)n1 [Compound I-1-645],2.41
9,Cn1cncc1C(=O)Nc1ccn(-c2ncc(F)cc2F)n1 [Compound I-1-646],0.70
10,Cn1cccc1C(=O)Nc1ccn(-c2ncc(F)cc2F)n1 [Compound I-1-647],2.16
11,O=C(Nc1cnn(-c2ccccc2Cl)n1)c1ccccc1I [Compound I-2-3],3.03
12,O=C(Nc1cnn(-c2ccccc2Cl)n1)c1cccnc1C(F)(F)F [Compound I-2-4],2.54
13,O=C(Nc1cnn(-c2ccccc2Cl)n1)c1cccnc1Cl [Compound I-2-5],2.20
14,O=C(Nc1cnn(-c2ccccc2Br)n1)c1ccccc1C(F)(F)F [Compound I-2-6],3.03
15,O=C(Nc1cnn(-c2ccccc2Br)n1)c1cccnc1C(F)(F)F [Compound I-2-8],2.58
16,O=C(Nc1cnn(-c2ccccc2Br)n1)c1cccnc1Cl [Compound I-2-9],2.29
17,O=C(Nc1nn(-c2ncccc2Cl)nc1Cl)c1ccccc1C(F)(F)F [Compound I-2-11],2.60
18,O=C(Nc1cnn(-c2ncccc2Cl)n1)c1ccccc1Cl [Compound I-2-12],2.22
19,O=C(Nc1cnn(-c2ncccc2Cl)n1)c1ccccc1Br [Compound I-2-13],2.26
20,O=C(Nc1cnn(-c2ncccc2Cl)n1)c1ccccc1I [Compound I-2-14],2.36
21,O=C(Nc1cnn(-c2ncccc2Cl)n1)c1c(F)cccc1F [Compound I-2-15],2.09
22,Cn1nc(C(F)(F)F)c(C(=O)Nc2cnn(-c3ncccc3Cl)n2)c1F [Compound I-2-16],2.19
23,O=C(Nc1cnn(-c2ncccc2Br)n1)c1ccccc1C(F)(F)F [Compound I-2-17],2.46
24,O=C(Nc1cnn(-c2ncccc2Br)n1)c1ccccc1I [Compound I-2-18],2.43
25,O=C(Nc1nn(-c2ccccc2Cl)nc1Cl)c1ccccc1C(F)(F)F [Compound I-2-19],3.21
26,O=C(c1ccccc1C(F)(F)F)N(C(=O)c1ccccc1C(F)(F)F)c1nn(-c2ccccc2Cl)nc1Cl [Compound I-2-20],4.87

row,SMILES,log P
1,Cc1nn(-c2ccccc2Cl)nc1NC(=O)c1ccccc1C(F)(F)F [Compound I-2-21],2.93
2,Cc1nn(-c2ccccc2Cl)nc1N(C(=O)c1ccccc1C(F)(F)F)C(=O)c1ccccc1C(F)(F)F [Compound I-2-22],4.54
3,O=C(c1cccnc1Cl)N(C(=O)c1cccnc1Cl)c1nn(-c2ccccc2Br)nc1Cl [Compound I-2-23],3.64
4,Cc1nn(-c2ccccc2Cl)nc1NC(=O)c1ccccc1I [Compound I-2-24],2.92
5,Cc1nn(-c2ccccc2Cl)nc1N(C(=O)c1ccccc1I)C(=O)c1ccccc1I [Compound I-2-25],4.68
6,O=C(Nc1nn(-c2ccccc2Br)nc1Cl)c1ccccc1C(F)(F)F [Compound I-2-26],3.22
7,O=C(c1ccccc1C(F)(F)F)N(C(=O)c1ccccc1C(F)(F)F)c1nn(-c2ccccc2Br)nc1Cl [Compound I-2-27],4.87
8,O=C(Nc1nn(-c2ccccc2Br)nc1Cl)c1cccnc1C(F)(F)F [Compound I-2-28],2.77
9,O=C(Nc1nn(-c2ccccc2Br)nc1Cl)c1ccccc1Cl [Compound I-2-29],3.09
10,O=C(c1ccccc1Cl)N(C(=O)c1ccccc1Cl)c1nn(-c2ccccc2Br)nc1Cl [Compound I-2-30],4.87
11,O=C(Nc1nn(-c2ccccc2Br)nc1Cl)c1cccnc1Cl [Compound I-2-31],2.46
12,O=C(Nc1nn(-c2ccccc2Br)nc1Cl)c1ccccc1I [Compound I-2-32],3.24
13,O=C(Nc1cnn(-c2ccccc2Br)n1)c1ccccc1I [Compound I-2-33],3.06
14,O=C(c1ccccc1I)N(C(=O)c1ccccc1I)c1nn(-c2ccccc2Br)nc1Cl [Compound I-2-34],5.06
15,O=C(Nc1cnn(-c2c(F)cccc2F)n1)c1ccccc1Br [Compound I-2-36],2.71
16,O=C(Nc1cnn(-c2c(F)cccc2F)n1)c1cccnc1Br [Compound I-2-37],2.09
17,O=C(Nc1cnn(-c2c(F)cccc2F)n1)c1ccccc1Cl [Compound I-2-38],2.66
18,O=C(Nc1cnn(-c2c(F)cccc2F)n1)c1ccsc1I [Compound I-2-40],2.90
19,O=C(Nc1cnn(-c2ccc(C(F)(F)F)cn2)n1)c1ccccc1C(F)(F)F [Compound I-2-42],3.02
20,O=C(Nc1cnn(-c2ccc(C(F)(F)F)cn2)n1)c1ccccc1I [Compound I-2-43],3.04
21,O=C(Nc1cnn(-c2ncccc2F)n1)c1ccccc1C(F)(F)F [Compound I-2-44],2.18
22,O=C(Nc1cnn(-c2ncccc2F)n1)c1cccnc1C(F)(F)F [Compound I-2-45],1.76
23,O=C(Nc1cnn(-c2ncccc2F)n1)c1ccccc1Br [Compound I-2-46],2.04
24,O=C(Nc1cnn(-c2ncccc2F)n1)c1cccnc1Br [Compound I-2-47],1.49
25,O=C(Nc1cnn(-c2ncccc2F)n1)c1ccccc1Cl [Compound I-2-48],1.99
26,O=C(Nc1cnn(-c2ncccc2F)n1)c1ccsc1I [Compound I-2-50],2.20

row,SMILES,log P
1,O=C(c1ccccc1C(F)(F)F)N(C(=O)c1ccccc1C(F)(F)F)c1cnn(-c2ncccc2Cl)n1 [Compound I-2-52],3.74
2,Cc1nn(-c2ncccc2Cl)nc1NC(=O)c1ccccc1C(F)(F)F [Compound I-2-53],2.33
3,Cc1nn(-c2ncccc2Cl)nc1N(C(=O)c1ccccc1C(F)(F)F)C(=O)c1ccccc1C(F)(F)F [Compound I-2-54],3.93
4,O=C(Nc1cnn(-c2ncccc2Cl)n1)c1cccnc1C(F)(F)F [Compound I-2-55],1.95
5,O=C(Nc1cnn(-c2ncccc2Cl)n1)c1cccnc1Cl [Compound I-2-56],1.66
6,O=C(Nc1cnn(-c2ncccc2Cl)n1)c1c(F)cccc1C(F)(F)F [Compound I-2-57],2.48
7,Cc1nn(-c2ncccc2Cl)nc1NC(=O)c1ccccc1I [Compound I-2-59],2.28
8,O=C(Nc1nn(-c2ncccc2Cl)nc1Cl)c1ccccc1I [Compound I-2-60],2.57
9,Cc1nn(-c2ncccc2Cl)nc1N(C(=O)c1ccccc1I)C(=O)c1ccccc1I [Compound I-2-61],4.03
10,O=C(Nc1cnn(-c2cc(F)cnc2F)n1)c1ccccc1C(F)(F)F [Compound I-2-62],2.77
11,O=C(Nc1cnn(-c2ncc(Cl)cc2Cl)n1)c1cccnc1C(F)(F)F [Compound I-2-64],2.54
12,O=C(Nc1cnn(-c2ncc(Cl)cc2Cl)n1)c1ccccc1I [Compound I-2-65],3.04
13,O=C(Nc1cnn(-c2ncc(F)cc2F)n1)c1ccccc1C(F)(F)F [Compound I-2-66],2.43
14,O=C(Nc1cnn(-c2ncc(F)cc2F)n1)c1cccnc1C(F)(F)F [Compound I-2-67],2.00
15,O=C(Nc1cnn(-c2ncc(F)cc2F)n1)c1ccccc1Br [Compound I-2-68],2.27
16,O=C(Nc1cnn(-c2ncc(F)cc2F)n1)c1cccnc1Br [Compound I-2-69],1.71
17,O=C(Nc1cnn(-c2ncc(F)cc2F)n1)c1ccccc1Cl [Compound I-2-70],2.22
18,O=C(Nc1cnn(-c2ncc(F)cc2F)n1)c1c(F)cccc1C(F)(F)F [Compound I-2-71],2.51
19,O=C(Nc1cnn(-c2ncc(F)cc2F)n1)c1ccsc1I [Compound I-2-72],2.44
20,O=C(Nc1cnn(-c2ncc(F)cc2F)n1)c1ccccc1I [Compound I-2-73],2.39
21,O=C(Nc1cnn(-c2ncc(C(F)(F)F)cc2Cl)n1)c1ccccc1C(F)(F)F [Compound I-2-74],3.28
22,O=C(Nc1cnn(-c2ncc(C(F)(F)F)cc2Cl)n1)c1ccccc1I [Compound I-2-75],3.28
23,O=C(Nc1cnn(-c2c(F)cccc2F)n1)c1cccnc1C(F)(F)F [Compound I-2-76],2.40
24,O=C(Nc1cnn(-c2c(F)cccc2F)n1)c1c(F)cccc1F [Compound I-2-77],2.59
